This is an account of results in ChEMBL document CHEMBL3627624, “New natural product carbonic anhydrase inhibitors incorporating phenol moieties” (Bioorg Med Chem, 2015).

Some results are limits rather than exact numbers.

What is called Ki is the equilibrium dissociation constant of an inhibitor or competing ligand from its target.

T3 sequence (P00915 whole entry): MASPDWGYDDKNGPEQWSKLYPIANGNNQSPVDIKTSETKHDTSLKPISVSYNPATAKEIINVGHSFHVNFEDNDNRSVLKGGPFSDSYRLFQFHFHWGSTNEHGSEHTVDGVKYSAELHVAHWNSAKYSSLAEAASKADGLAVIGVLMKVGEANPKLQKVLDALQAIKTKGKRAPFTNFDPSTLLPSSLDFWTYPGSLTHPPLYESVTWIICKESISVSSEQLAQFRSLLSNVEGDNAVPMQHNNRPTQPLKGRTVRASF
Carbonic anhydrase 4, sequence (P22748 whole entry): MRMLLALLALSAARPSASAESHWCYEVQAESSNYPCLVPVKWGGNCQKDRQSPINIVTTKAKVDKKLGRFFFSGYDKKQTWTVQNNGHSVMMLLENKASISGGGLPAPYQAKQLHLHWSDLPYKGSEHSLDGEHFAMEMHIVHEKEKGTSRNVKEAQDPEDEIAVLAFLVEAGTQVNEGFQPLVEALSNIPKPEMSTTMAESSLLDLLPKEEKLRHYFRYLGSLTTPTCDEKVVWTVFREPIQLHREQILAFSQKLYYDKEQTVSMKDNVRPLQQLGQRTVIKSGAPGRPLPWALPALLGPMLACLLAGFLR

In one assay the target is T1, Carbonic anhydrase 12 (Homo sapiens, UniProt O43570). As to the kind of experiment: Inhibition of human recombinant carbonic anhydrase 12 preincubated for 15 mins at room temperature/6 hrs at 4 deg C by stopped-flow CO2 hydration assay.
T1 sequence (O43570 whole entry): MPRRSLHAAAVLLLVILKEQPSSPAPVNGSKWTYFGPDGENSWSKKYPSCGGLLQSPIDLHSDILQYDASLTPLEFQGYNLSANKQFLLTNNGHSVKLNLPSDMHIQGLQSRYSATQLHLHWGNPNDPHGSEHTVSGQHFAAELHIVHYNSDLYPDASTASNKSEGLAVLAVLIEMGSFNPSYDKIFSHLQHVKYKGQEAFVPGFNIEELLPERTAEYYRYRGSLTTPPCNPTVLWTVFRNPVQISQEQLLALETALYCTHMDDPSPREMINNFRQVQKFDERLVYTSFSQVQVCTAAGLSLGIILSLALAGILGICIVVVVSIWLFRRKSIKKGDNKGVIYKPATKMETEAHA
With `O=c1c(O)c(-c2ccccc2)oc2cc(O)cc(O)c12` [GALANGIN], the inhibitory constant (Ki) came to 41.8 nM.

For the compound `C[C@@H]1O[C@@H](Oc2c(-c3ccc(O)c(O)c3)oc3cc(O)cc(O)c3c2=O)[C@H](O)[C@H](O)[C@H]1O` [QUERCETIN-3-O-RHAMNOSIDE], the Ki stood at 43.5 nM.

For `O=C1C[C@@H](c2ccc(O)cc2)Oc2cc(O)cc(O)c21` [NARINGENIN], the Ki turned out to be 44.3 nM.

Consider `O=c1c(-c2ccc(O)cc2)coc2cc(O)ccc12` [DAIDZEIN], for which the Ki came to 56.4 nM.

Regarding `O=C1C[C@@H](c2ccc(O)c(O)c2)Oc2cc(O)cc(O)c21` [ERIODICTYOL], the inhibition constant Ki was 31.1 nM.

In the case of `CC(=O)O[C@@H]1[C@@H](OC(=O)/C=C/c2ccc(O)cc2)[C@H](Oc2c(-c3ccc(O)cc3)oc3cc(O)cc(O)c3c2=O)O[C@H](COC(=O)/C=C/c2ccc(O)cc2)[C@H]1OC(C)=O`, the Ki is 400 nM.

On to `O=c1c(O[C@@H]2O[C@H](CO)[C@@H](O)[C@H](O)[C@H]2O)c(-c2ccc(O)c(O)c2)oc2cc(O)cc(O)c12` [ISOQUERCETIN], for which the Ki worked out at 52.1 nM.

A further assay deals with T2, Carbonic anhydrase 2 (Homo sapiens, UniProt P00918). As to the kind of experiment: Inhibition of human recombinant carbonic anhydrase 2 preincubated for 15 mins at room temperature/6 hrs at 4 deg C by stopped-flow CO2 hydration assay.
For `O=C(/C=C/c1ccc(O)c2c1[C@H](C(=O)O)[C@@H](c1ccc(O)c(O)c1)O2)O[C@H](Cc1ccc(O)c(O)c1)C(=O)O` [LITHOSPERMIC ACID], the inhibition constant (Ki) is > 10000 nM.

Consider `O=c1c(-c2ccc(O)cc2)coc2c([C@@H]3O[C@H](CO)[C@@H](O)[C@H](O)[C@H]3O)c(O)ccc12` [PUERARIN], for which the Ki is > 10000 nM.

As for `O=c1c(O)c(-c2ccccc2)oc2cc(O)cc(O)c12` [GALANGIN], the inhibition constant (Ki) is > 10000 nM.

Consider `C[C@@H]1O[C@@H](Oc2c(-c3ccc(O)c(O)c3)oc3cc(O)cc(O)c3c2=O)[C@H](O)[C@H](O)[C@H]1O` [QUERCETIN-3-O-RHAMNOSIDE], for which the inhibition constant Ki is 6370 nM.

With `O=C1C[C@@H](c2ccc(O)cc2)Oc2cc(O)cc(O)c21` [NARINGENIN], the Ki is > 10000 nM.

For `O=c1c(-c2ccc(O)cc2)coc2cc(O)ccc12` [DAIDZEIN], the Ki is > 10000 nM.

As to `O=C1C[C@@H](c2ccc(O)c(O)c2)Oc2cc(O)cc(O)c21` [ERIODICTYOL], the inhibitory constant (Ki) was > 10000 nM.

Take `CC(=O)O[C@@H]1[C@@H](OC(=O)/C=C/c2ccc(O)cc2)[C@H](Oc2c(-c3ccc(O)cc3)oc3cc(O)cc(O)c3c2=O)O[C@H](COC(=O)/C=C/c2ccc(O)cc2)[C@H]1OC(C)=O`: the Ki is 6860 nM.

Consider `O=c1c(O[C@@H]2O[C@H](CO)[C@@H](O)[C@H](O)[C@H]2O)c(-c2ccc(O)c(O)c2)oc2cc(O)cc(O)c12` [ISOQUERCETIN], for which the Ki was 6210 nM.

Another assay deals with T2, Carbonic anhydrase 2. The assay can be described thus: Inhibition of human recombinant carbonic anhydrase 2.
On to `O=c1c(O[C@@H]2O[C@H](CO)[C@@H](O)[C@H](O)[C@H]2O)c(-c2ccc(O)c(O)c2)oc2cc(O)cc(O)c12` [ISOQUERCETIN], for which the Ki is 410 nM.

The next assay concerns the target T1, Carbonic anhydrase 12. As to the kind of experiment: Inhibition of human recombinant carbonic anhydrase 12.
Take `O=c1c(O[C@@H]2O[C@H](CO)[C@@H](O)[C@H](O)[C@H]2O)c(-c2ccc(O)c(O)c2)oc2cc(O)cc(O)c12` [ISOQUERCETIN]: the inhibition constant Ki is 170 nM.

A further assay addresses T3, Carbonic anhydrase 1 (Homo sapiens, UniProt P00915). The assay can be described thus: Inhibition of human recombinant carbonic anhydrase 1 preincubated for 15 mins at room temperature/6 hrs at 4 deg C by stopped-flow CO2 hydration assay.
As for `O=C(/C=C/c1ccc(O)c2c1[C@H](C(=O)O)[C@@H](c1ccc(O)c(O)c1)O2)O[C@H](Cc1ccc(O)c(O)c1)C(=O)O` [LITHOSPERMIC ACID], the Ki is > 10000 nM.

Take `O=c1c(-c2ccc(O)cc2)coc2c([C@@H]3O[C@H](CO)[C@@H](O)[C@H](O)[C@H]3O)c(O)ccc12` [PUERARIN]: the inhibition constant (Ki) was > 10000 nM.

Consider `O=C1c2c(O)cc(O)cc2O[C@H](c2ccc(O)c(O)c2)[C@H]1O` [(+)-TAXIFOLIN], for which the Ki was > 10000 nM.

With `O=c1c(O)c(-c2ccccc2)oc2cc(O)cc(O)c12` [GALANGIN], the Ki is > 10000 nM.

`C[C@@H]1O[C@@H](Oc2c(-c3ccc(O)c(O)c3)oc3cc(O)cc(O)c3c2=O)[C@H](O)[C@H](O)[C@H]1O` [QUERCETIN-3-O-RHAMNOSIDE]: the inhibition constant Ki was > 10000 nM.

Turning to `O=C1C[C@@H](c2ccc(O)cc2)Oc2cc(O)cc(O)c21` [NARINGENIN], the Ki is > 10000 nM.

In the case of `O=c1c(-c2ccc(O)cc2)coc2cc(O)ccc12` [DAIDZEIN], the Ki is > 10000 nM.

In the case of `O=C1C[C@@H](c2ccc(O)c(O)c2)Oc2cc(O)cc(O)c21` [ERIODICTYOL], the Ki is > 10000 nM.

In the case of `CC(=O)O[C@@H]1[C@@H](OC(=O)/C=C/c2ccc(O)cc2)[C@H](Oc2c(-c3ccc(O)cc3)oc3cc(O)cc(O)c3c2=O)O[C@H](COC(=O)/C=C/c2ccc(O)cc2)[C@H]1OC(C)=O`, the inhibition constant (Ki) was > 10000 nM.

`O=c1c(O[C@@H]2O[C@H](CO)[C@@H](O)[C@H](O)[C@H]2O)c(-c2ccc(O)c(O)c2)oc2cc(O)cc(O)c12` [ISOQUERCETIN]: the Ki was > 10000 nM.

A further assay has as its target T3, Carbonic anhydrase 1. The assay can be described thus: Inhibition of human recombinant carbonic anhydrase 1.
Turning to `O=c1c(O[C@@H]2O[C@H](CO)[C@@H](O)[C@H](O)[C@H]2O)c(-c2ccc(O)c(O)c2)oc2cc(O)cc(O)c12` [ISOQUERCETIN], the Ki was > 10000 nM.

Another assay has as its target Carbonic anhydrase 4 (Homo sapiens, UniProt P22748). The assay can be described thus: Inhibition of human recombinant carbonic anhydrase 4 preincubated for 15 mins at room temperature/6 hrs at 4 deg C by stopped-flow CO2 hydration assay.
For the compound `O=C(/C=C/c1ccc(O)c2c1[C@H](C(=O)O)[C@@H](c1ccc(O)c(O)c1)O2)O[C@H](Cc1ccc(O)c(O)c1)C(=O)O` [LITHOSPERMIC ACID], the inhibition constant Ki amounted to 101 nM.

Take `O=c1c(-c2ccc(O)cc2)coc2c([C@@H]3O[C@H](CO)[C@@H](O)[C@H](O)[C@H]3O)c(O)ccc12` [PUERARIN]: the inhibition constant (Ki) was > 10000 nM.

As for `O=c1c(O)c(-c2ccccc2)oc2cc(O)cc(O)c12` [GALANGIN], the Ki was found to be 568 nM.

Take `C[C@@H]1O[C@@H](Oc2c(-c3ccc(O)c(O)c3)oc3cc(O)cc(O)c3c2=O)[C@H](O)[C@H](O)[C@H]1O` [QUERCETIN-3-O-RHAMNOSIDE]: the Ki is 67.3 nM.

For the compound `O=C1C[C@@H](c2ccc(O)cc2)Oc2cc(O)cc(O)c21` [NARINGENIN], the inhibition constant Ki came out at 79.5 nM.

Consider `O=c1c(-c2ccc(O)cc2)coc2cc(O)ccc12` [DAIDZEIN], for which the Ki was 719 nM.

Consider `O=C1C[C@@H](c2ccc(O)c(O)c2)Oc2cc(O)cc(O)c21` [ERIODICTYOL], for which the inhibitory constant (Ki) came out at 72.8 nM.

With `CC(=O)O[C@@H]1[C@@H](OC(=O)/C=C/c2ccc(O)cc2)[C@H](Oc2c(-c3ccc(O)cc3)oc3cc(O)cc(O)c3c2=O)O[C@H](COC(=O)/C=C/c2ccc(O)cc2)[C@H]1OC(C)=O`, the Ki amounted to 62.2 nM.

Take `O=c1c(O[C@@H]2O[C@H](CO)[C@@H](O)[C@H](O)[C@H]2O)c(-c2ccc(O)c(O)c2)oc2cc(O)cc(O)c12` [ISOQUERCETIN]: the inhibitory constant (Ki) amounted to 75.7 nM.

The target of another assay is Carbonic anhydrase 7 (Homo sapiens, UniProt P43166). The assay can be described thus: Inhibition of human recombinant carbonic anhydrase 7 preincubated for 15 mins at room temperature/6 hrs at 4 deg C by stopped-flow CO2 hydration assay.
Carbonic anhydrase 7, sequence (P43166 whole entry): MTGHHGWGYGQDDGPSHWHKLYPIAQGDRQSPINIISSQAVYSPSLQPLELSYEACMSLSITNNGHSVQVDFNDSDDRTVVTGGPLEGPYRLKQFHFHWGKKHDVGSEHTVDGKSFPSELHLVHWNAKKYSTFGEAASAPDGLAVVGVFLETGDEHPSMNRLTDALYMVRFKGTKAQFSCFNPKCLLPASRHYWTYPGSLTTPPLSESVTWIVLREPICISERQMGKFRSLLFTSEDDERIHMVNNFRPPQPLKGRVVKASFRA
In the case of `O=C(/C=C/c1ccc(O)c2c1[C@H](C(=O)O)[C@@H](c1ccc(O)c(O)c1)O2)O[C@H](Cc1ccc(O)c(O)c1)C(=O)O` [LITHOSPERMIC ACID], the Ki amounted to 268 nM.

Turning to `O=c1c(-c2ccc(O)cc2)coc2c([C@@H]3O[C@H](CO)[C@@H](O)[C@H](O)[C@H]3O)c(O)ccc12` [PUERARIN], the Ki is 453 nM.

For `O=c1c(O)c(-c2ccccc2)oc2cc(O)cc(O)c12` [GALANGIN], the inhibition constant Ki was found to be 24.5 nM.

For `C[C@@H]1O[C@@H](Oc2c(-c3ccc(O)c(O)c3)oc3cc(O)cc(O)c3c2=O)[C@H](O)[C@H](O)[C@H]1O` [QUERCETIN-3-O-RHAMNOSIDE], the inhibition constant (Ki) came out at 3.9 nM.

As for `O=C1C[C@@H](c2ccc(O)cc2)Oc2cc(O)cc(O)c21` [NARINGENIN], the inhibition constant Ki came to 4.3 nM.

On to `O=c1c(-c2ccc(O)cc2)coc2cc(O)ccc12` [DAIDZEIN], for which the Ki was 4.2 nM.

For the compound `O=C1C[C@@H](c2ccc(O)c(O)c2)Oc2cc(O)cc(O)c21` [ERIODICTYOL], the inhibitory constant (Ki) is 4.3 nM.

Consider `CC(=O)O[C@@H]1[C@@H](OC(=O)/C=C/c2ccc(O)cc2)[C@H](Oc2c(-c3ccc(O)cc3)oc3cc(O)cc(O)c3c2=O)O[C@H](COC(=O)/C=C/c2ccc(O)cc2)[C@H]1OC(C)=O`, for which the Ki worked out at 26.6 nM.

Regarding `O=c1c(O[C@@H]2O[C@H](CO)[C@@H](O)[C@H](O)[C@H]2O)c(-c2ccc(O)c(O)c2)oc2cc(O)cc(O)c12` [ISOQUERCETIN], the Ki came to 3.8 nM.
